Target: human TYK2 (JH2domain-pseudokinase) (Homo sapiens (Human), UniProt P29597)
Assay: TYK2 JH2 Domain Binding Assay (KINOMEscan, DiscoveRx)
Conditions: 11-point dilution, duplicate
Method in brief: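 Kd from duplicate 11-point 3-fold dilutions starting at 30,000 nM, fitted by Hill equation with slope fixed at −1. Compounds (final 0.9% DMSO) displace DNA-tagged HEK293-expressed TYK2 JH2 fusion (<0.1 nM) from ligand-coated beads over 1 h at room temperature; eluted kinase read by qPCR.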

Sequence of human TYK2 (JH2domain-pseudokinase) (P29597 556-888): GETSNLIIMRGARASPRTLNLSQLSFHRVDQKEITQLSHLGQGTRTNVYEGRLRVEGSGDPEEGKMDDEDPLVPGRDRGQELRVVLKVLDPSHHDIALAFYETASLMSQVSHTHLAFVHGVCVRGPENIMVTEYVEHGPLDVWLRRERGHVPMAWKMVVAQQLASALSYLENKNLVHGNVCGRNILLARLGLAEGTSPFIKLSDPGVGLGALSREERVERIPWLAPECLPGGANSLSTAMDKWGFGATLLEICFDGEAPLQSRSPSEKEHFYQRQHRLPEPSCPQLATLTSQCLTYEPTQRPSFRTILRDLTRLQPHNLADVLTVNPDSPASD

Structure (SMILES) | Kd [nM]
COCc1nc(-c2ccc(Nc3cc(NC(=O)C4CC4)nc4[nH]c(C)nc34)c(S(C)(=O)=O)c2)sc1C [I-512, N-(7-((4-(4-(methoxymethyl)-5-methylthiazol-2-yl)-2-(methylsulfonyl)phenyl)amino)-2-methyl-3H-imidazo[4,5-b]pyridin-5-yl)cyclopropanecarboxamide] | < 0.1
Cc1cnc(-c2ccc(Nc3cc(Nc4cccc(C#N)n4)nc4[nH]c(C(F)F)nc34)c(S(C)(=O)=O)c2)s1 [I-513, 6-((2-(difluoromethyl)-7-((2-(methylsulfonyl)-4-(5-methylthiazol-2-yl)phenyl)amino)-3H-imidazo[4,5-b]pyridin-5-yl)amino)picolinonitrile] | 0.5 to 1
Cc1nc2c(Nc3ccc(-c4cc(C)n(C)n4)cc3S(C)(=O)=O)cc(Nc3cc4n(n3)CCOC4)nc2[nH]1 [I-514, N5-(6,7-dihydro-4H-pyrazolo[5,1-c][1,4]oxazin-2-yl)-N7-(4-(1,5-dimethyl-1H-pyrazol-3-yl)-2-(methylsulfonyl)phenyl)-2-methyl-3H-imidazo[4,5-b]pyridine-5,7-diamine] | < 0.1
CS(=O)(=O)c1cc([C@H]2CCCCO2)ccc1Nc1cc(Nc2cc3n(n2)CCOC3)nc2[nH]c(C(F)F)nc12 [I-515, (R)-2-(difluoromethyl)-N5-(6,7-dihydro-4H-pyrazolo[5,1-c][1,4]oxazin-2-yl)-N7-(2-(methylsulfonyl)-4-(tetrahydro-2H-pyran-2-yl)phenyl)-3H-imidazo[4,5-b]pyridine-5,7-diamine] | < 0.1
CS(=O)(=O)c1cc([C@@H]2CCCCO2)ccc1Nc1cc(Nc2cc3n(n2)CCOC3)nc2[nH]c(C(F)F)nc12 [I-516, (S)-2-(difluoromethyl)-N5-(6,7-dihydro-4H-pyrazolo[5,1-c][1,4]oxazin-2-yl)-N7-(2-(methylsulfonyl)-4-(tetrahydro-2H-pyran-2-yl)phenyl)-3H-imidazo[4,5-b]pyridine-5,7-diamine] | 0.1 to 0.5
CS(=O)(=O)c1cc([C@H]2CCCCO2)ccc1Nc1cc(Nc2cccc(C(F)(F)F)n2)nc2[nH]c(C(F)F)nc12 [I-517, (R)-2-(difluoromethyl)-N7-(2-(methylsulfonyl)-4-(tetrahydro-2H-pyran-2-yl)phenyl)-N5-(6-(trifluoromethyl)pyridin-2-yl)-3H-imidazo[4,5-b]pyridine-5,7-diamine] | 0.5 to 1
CS(=O)(=O)c1cc([C@@H]2CCCCO2)ccc1Nc1cc(Nc2cccc(C(F)(F)F)n2)nc2[nH]c(C(F)F)nc12 [I-518, (S)-2-(difluoromethyl)-N7-(2-(methylsulfonyl)-4-(tetrahydro-2H-pyran-2-yl)phenyl)-N5-(6-(trifluoromethyl)pyridin-2-yl)-3H-imidazo[4,5-b]pyridine-5,7-diamine] | 1 to 10
Cc1cc(Nc2cc(Nc3ccc(-c4cc(C)n(C)n4)cc3S(C)(=O)=O)c3nc(C(F)F)[nH]c3n2)nc(C)n1 [I-519, 2-(difluoromethyl)-N7-(4-(1,5-dimethyl-1H-pyrazol-3-yl)-2-(methylsulfonyl)phenyl)-N5-(2,6-dimethylpyrimidin-4-yl)-3H-imidazo[4,5-b]pyridine-5,7-diamine] | 0.1 to 0.5
COCc1ccc(Nc2cc(Nc3ccccc3S(C)(=O)=O)c3nc(C(F)F)[nH]c3n2)nn1 [I-520] | 0.1 to 0.5
COCc1ccc(Nc2cc(Nc3ccccc3S(C)(=O)=O)c3nc(C)[nH]c3n2)nn1 [I-521] | < 0.1
CS(=O)(=O)c1cc(-c2ccn(C3CCOCC3)n2)ccc1Nc1cc(NC(=O)C2CC2)nc2[nH]c(C(F)F)nc12 [I-522] | 0.1 to 0.5
Cc1nc2c(Nc3ccc(-c4ccn(C5CCOCC5)n4)cc3S(C)(=O)=O)cc(NC(=O)C3CC3)nc2[nH]1 [I-523] | < 0.1
CCOc1ccc(Nc2cc(Nc3ccccc3S(C)(=O)=O)c3nc(C(F)F)[nH]c3n2)nc1C#N [I-524] | 0.1 to 0.5
CCOc1ccc(Nc2cc(Nc3ccccc3S(C)(=O)=O)c3nc(C)[nH]c3n2)nc1C#N [I-525] | < 0.1
Cc1cc(-c2ccc(Nc3cc(Nc4cc5n(n4)CCOC5)nc4[nH]c(C(F)F)nc34)c(S(C)(=O)=O)c2)nn1C [I-526] | < 0.1
Cc1cc(Nc2cc(Nc3ccc(-c4ccn(C5CC5)n4)cc3S(C)(=O)=O)c3nc(C(F)F)[nH]c3n2)nc(C)n1 [I-527] | 0.1 to 0.5
Cc1cc(Nc2cc(Nc3ccc(-c4ccn(C5CC5)n4)cc3S(C)(=O)=O)c3nc(C)[nH]c3n2)nc(C)n1 [I-528] | 0.1 to 0.5
Cc1cc(Nc2cc(Nc3ccc([C@H]4CCCCO4)cc3S(C)(=O)=O)c3nc(C)[nH]c3n2)nc(C)n1 [I-529] | < 0.1
Cc1cc(Nc2cc(Nc3ccc([C@@H]4CCCCO4)cc3S(C)(=O)=O)c3nc(C)[nH]c3n2)nc(C)n1 [I-530] | < 0.1

Structure (SMILES) | Kd [nM]
CS(=O)(=O)c1ccccc1Nc1cc(Nc2ccc3c(n2)CCOC3)nc2[nH]c(C(F)F)nc12 [I-531] | < 0.1
Cc1nc2c(Nc3ccccc3S(C)(=O)=O)cc(Nc3ccc4c(n3)CCOC4)nc2[nH]1 [I-532] | < 0.1
Cc1c(-c2ccc(Nc3cc(Nc4ccc(C(C)C)c(C#N)n4)nc4[nH]c(C(F)F)nc34)c(S(C)(=O)=O)c2)cnn1C [I-533] | 0.1 to 0.5
Cc1cc(C)c(-c2ccc(Nc3cc(NC(=O)C4CC4)nc4[nH]c(C(F)F)nc34)c(S(C)(=O)=O)c2)o1 [I-534] | 1 to 10
Cc1nc2c(Nc3ccc(C4CCC(C)(C)CO4)cc3S(C)(=O)=O)cc(NC(=O)C3CC3)nc2[nH]1 (centres unmarked) [I-536, N-(7-((4-(5,5-dimethyltetrahydro-2H-pyran-2-yl)-2-(methylsulfonyl)phenyl)amino)-2-methyl-3H-imidazo[4,5-b]pyridin-5-yl)cyclopropanecarboxamide] | < 0.1
Cc1c(-c2ccc(Nc3cc(NC(=O)C4CC4)nc4[nH]c(C(F)F)nc34)c(S(C)(=O)=O)c2)cnn1C1CC1 [I-537, N-(7-((4-(1-cyclopropyl-5-methyl-1H-pyrazol-4-yl)-2-(methylsulfonyl)phenyl)amino)-2-(difluoromethyl)-3H-imidazo[4,5-b]pyridin-5-yl)cyclopropanecarboxamide] | < 0.1
COc1c(Nc2cc(Nc3cccc(C#N)n3)nc3[nH]c(C(F)F)nc23)cccc1-c1ncnn1C [I-538] | 0.5 to 1
COc1c(Nc2cc(Nc3cccc(C#N)n3)nc3[nH]c(C)nc23)cccc1-c1ncnn1C [I-539, 6-((7-((2-methoxy-3-(1-methyl-1H-1,2,4-triazol-5-yl)phenyl)amino)-2-methyl-3H-imidazo[4,5-b]pyridin-5-yl)amino)picolinonitrile] | 0.5 to 1
COc1c(Nc2cc(Nc3cccc(C#N)n3)nc3[nH]c(C)nc23)cccc1-c1cnn(C)n1 [I-540, 6-((7-((2-methoxy-3-(2-methyl-2H-1,2,3-triazol-4-yl)phenyl)amino)-2-methyl-3H-imidazo[4,5-b]pyridin-5-yl)amino)picolinonitrile] | 0.1 to 0.5
COc1c(Nc2cc(Nc3cccc(C#N)n3)nc3[nH]c(C(F)F)nc23)cccc1-c1nc(C)nn1C [I-541, 6-((2-(difluoromethyl)-7-((3-(1,3-dimethyl-1H-1,2,4-triazol-5-yl)-2-methoxyphenyl)amino)-3H-imidazo[4,5-b]pyridin-5-yl)amino)picolinonitrile] | 0.5 to 1
COc1c(Nc2cc(Nc3cccc(C#N)n3)nc3[nH]c(C)nc23)cccc1-c1nc(C)nn1C [I-542, 6-((7-((3-(1,3-dimethyl-1H-1,2,4-triazol-5-yl)-2-methoxyphenyl)amino)-2-methyl-3H-imidazo[4,5-b]pyridin-5-yl)amino)picolinonitrile] | 0.5 to 1
COc1c(Nc2cc(Nc3cccc(C#N)n3)nc3[nH]c(C)nc23)cccc1-c1nc(C)cs1 [I-543, 6-((7-((2-methoxy-3-(4-methylthiazol-2-yl)phenyl)amino)-2-methyl-3H-imidazo[4,5-b]pyridin-5-yl)amino)picolinonitrile] | 1 to 10
Cc1nc2c(Nc3ccc(C4CCCO4)cc3S(C)(=O)=O)cc(Nc3cccc(C#N)n3)nc2[nH]1 (centres unmarked) [I-544, 6-((2-methyl-7-((2-(methylsulfonyl)-4-(tetrahydrofuran-2-yl)phenyl)amino)-3H-imidazo[4,5-b]pyridin-5-yl)amino)picolinonitrile] | 0.1 to 0.5
Cc1nc(-c2ccc(Nc3cc(NC(=O)C4CC4)nc4[nH]c(C(F)F)nc34)c(S(C)(=O)=O)c2)cs1 [I-545, N-(2-(difluoromethyl)-7-((2-(methylsulfonyl)-4-(2-methylthiazol-4-yl)phenyl)amino)-3H-imidazo[4,5-b]pyridin-5-yl)cyclopropanecarboxamide] | 0.1 to 0.5
C#Cc1cccc(Nc2cc(Nc3ccccc3S(C)(=O)=O)c3nc(C(F)F)[nH]c3n2)n1 [I-546, 2-(difluoromethyl)-N5-(6-ethynylpyridin-2-yl)-N7-(2-(methylsulfonyl)phenyl)-3H-imidazo[4,5-b]pyridine-5,7-diamine] | 1 to 10
C#Cc1cccc(Nc2cc(Nc3ccccc3S(C)(=O)=O)c3nc(C)[nH]c3n2)n1 [I-547, N5-(6-ethynylpyridin-2-yl)-2-methyl-N7-(2-(methylsulfonyl)phenyl)-3H-imidazo[4,5-b]pyridine-5,7-diamine] | < 0.1
CN=[S@@](C)(=O)c1ccccc1Nc1cc(NC(=O)C2CC2)nc2[nH]c(C)nc12 [I-549, N-(7-((2-(N,S-dimethylsulfonimidoyl)phenyl)amino)-2-methyl-3H-imidazo[4,5-b]pyridin-5-yl)cyclopropanecarboxamide] | 1 to 10
Cc1nc2c(Nc3ccc([C@@H]4CCC(C)(C)CO4)cc3S(C)(=O)=O)cc(NC(=O)C3CC3)nc2[nH]1 [I-550, (S)—N-(7-((4-(5,5-dimethyltetrahydro-2H-pyran-2-yl)-2-(methylsulfonyl)phenyl)amino)-2-methyl-3H-imidazo[4,5-b]pyridin-5-yl)cyclopropanecarboxamide] | < 0.1
Cc1nc2c(Nc3ccc([C@H]4CCC(C)(C)CO4)cc3S(C)(=O)=O)cc(NC(=O)C3CC3)nc2[nH]1 [I-551, (R)—N-(7-((4-(5,5-dimethyltetrahydro-2H-pyran-2-yl)-2-(methylsulfonyl)phenyl)amino)-2-methyl-3H-imidazo[4,5-b]pyridin-5-yl)cyclopropanecarboxamide] | 0.5 to 1

Source: patent US10647713B2 (Nimbus Lakshmi, Inc., priority 2016, dated 2020)
